Assay results taken from the supplement of paper PMC12076712.

Legend:
Experiment in all cases: pIC50, kinobeads binding competition
Conditions in all cases: cell material: Jurkat lysate
AKT2 = AKT2 (UniProt P31751)
ILK = molecular target: T1, ILK (UniProt Q13418)
T1 sequence (whole entry): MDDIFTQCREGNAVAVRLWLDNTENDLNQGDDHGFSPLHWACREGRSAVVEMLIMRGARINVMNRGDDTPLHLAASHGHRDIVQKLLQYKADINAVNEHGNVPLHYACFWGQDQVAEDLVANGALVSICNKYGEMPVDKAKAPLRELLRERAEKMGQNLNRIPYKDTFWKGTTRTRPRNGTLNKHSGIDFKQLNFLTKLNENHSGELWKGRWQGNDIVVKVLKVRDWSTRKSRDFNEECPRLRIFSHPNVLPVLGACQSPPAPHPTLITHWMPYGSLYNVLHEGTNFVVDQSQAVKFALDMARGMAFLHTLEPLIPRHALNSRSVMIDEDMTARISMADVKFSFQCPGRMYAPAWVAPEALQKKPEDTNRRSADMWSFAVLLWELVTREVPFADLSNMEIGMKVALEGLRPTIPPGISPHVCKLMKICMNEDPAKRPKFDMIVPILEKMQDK

NEK9 = molecular target: T2, NEK9 (UniProt Q8TD19)
T2 sequence (whole entry): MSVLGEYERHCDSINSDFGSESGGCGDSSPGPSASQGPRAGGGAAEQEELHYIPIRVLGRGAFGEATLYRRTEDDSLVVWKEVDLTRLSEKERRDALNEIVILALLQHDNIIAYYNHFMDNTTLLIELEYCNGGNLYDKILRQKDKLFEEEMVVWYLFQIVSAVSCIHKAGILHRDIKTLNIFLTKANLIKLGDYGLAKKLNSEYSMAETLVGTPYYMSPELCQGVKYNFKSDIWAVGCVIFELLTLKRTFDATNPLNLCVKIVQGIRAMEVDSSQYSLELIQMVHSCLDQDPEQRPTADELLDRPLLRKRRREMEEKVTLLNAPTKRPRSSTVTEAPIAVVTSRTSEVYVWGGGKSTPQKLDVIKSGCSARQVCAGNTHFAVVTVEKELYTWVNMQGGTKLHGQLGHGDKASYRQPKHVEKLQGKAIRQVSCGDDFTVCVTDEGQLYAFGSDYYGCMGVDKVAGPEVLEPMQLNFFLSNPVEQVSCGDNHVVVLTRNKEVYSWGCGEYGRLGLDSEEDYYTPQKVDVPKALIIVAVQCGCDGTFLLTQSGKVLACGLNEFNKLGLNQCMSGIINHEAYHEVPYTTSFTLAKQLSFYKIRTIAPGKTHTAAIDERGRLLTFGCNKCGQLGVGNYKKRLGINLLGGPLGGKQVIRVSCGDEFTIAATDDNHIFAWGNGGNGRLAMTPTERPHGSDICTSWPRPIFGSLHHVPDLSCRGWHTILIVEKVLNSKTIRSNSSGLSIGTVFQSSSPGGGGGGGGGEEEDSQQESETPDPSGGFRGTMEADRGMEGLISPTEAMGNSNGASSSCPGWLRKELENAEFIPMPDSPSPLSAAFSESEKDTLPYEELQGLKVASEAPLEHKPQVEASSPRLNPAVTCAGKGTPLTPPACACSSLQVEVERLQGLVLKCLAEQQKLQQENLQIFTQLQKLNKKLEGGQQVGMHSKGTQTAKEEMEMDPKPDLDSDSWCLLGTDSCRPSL

SYK = SYK (UniProt P43405)
TGFBR2 = TGFBR2 (UniProt P37173)
Sequence of TGFBR2 (P37173 whole entry): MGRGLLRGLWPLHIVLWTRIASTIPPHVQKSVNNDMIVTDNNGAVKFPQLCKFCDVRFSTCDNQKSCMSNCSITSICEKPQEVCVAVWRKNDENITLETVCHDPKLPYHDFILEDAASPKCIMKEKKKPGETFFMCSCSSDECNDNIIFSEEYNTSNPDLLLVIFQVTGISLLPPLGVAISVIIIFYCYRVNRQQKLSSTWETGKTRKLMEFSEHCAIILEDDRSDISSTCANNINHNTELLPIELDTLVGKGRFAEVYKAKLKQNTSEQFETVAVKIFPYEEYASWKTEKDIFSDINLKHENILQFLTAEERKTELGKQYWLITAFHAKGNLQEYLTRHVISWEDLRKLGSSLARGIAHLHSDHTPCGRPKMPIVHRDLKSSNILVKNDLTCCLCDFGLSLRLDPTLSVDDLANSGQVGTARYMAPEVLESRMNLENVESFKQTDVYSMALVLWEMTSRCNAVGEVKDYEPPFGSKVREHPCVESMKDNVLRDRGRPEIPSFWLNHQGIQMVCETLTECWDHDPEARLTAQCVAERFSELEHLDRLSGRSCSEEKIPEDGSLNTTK

UniProt O94804 = molecular target: UniProt O94804
Sequence of UniProt O94804 (O94804 whole entry, looked up): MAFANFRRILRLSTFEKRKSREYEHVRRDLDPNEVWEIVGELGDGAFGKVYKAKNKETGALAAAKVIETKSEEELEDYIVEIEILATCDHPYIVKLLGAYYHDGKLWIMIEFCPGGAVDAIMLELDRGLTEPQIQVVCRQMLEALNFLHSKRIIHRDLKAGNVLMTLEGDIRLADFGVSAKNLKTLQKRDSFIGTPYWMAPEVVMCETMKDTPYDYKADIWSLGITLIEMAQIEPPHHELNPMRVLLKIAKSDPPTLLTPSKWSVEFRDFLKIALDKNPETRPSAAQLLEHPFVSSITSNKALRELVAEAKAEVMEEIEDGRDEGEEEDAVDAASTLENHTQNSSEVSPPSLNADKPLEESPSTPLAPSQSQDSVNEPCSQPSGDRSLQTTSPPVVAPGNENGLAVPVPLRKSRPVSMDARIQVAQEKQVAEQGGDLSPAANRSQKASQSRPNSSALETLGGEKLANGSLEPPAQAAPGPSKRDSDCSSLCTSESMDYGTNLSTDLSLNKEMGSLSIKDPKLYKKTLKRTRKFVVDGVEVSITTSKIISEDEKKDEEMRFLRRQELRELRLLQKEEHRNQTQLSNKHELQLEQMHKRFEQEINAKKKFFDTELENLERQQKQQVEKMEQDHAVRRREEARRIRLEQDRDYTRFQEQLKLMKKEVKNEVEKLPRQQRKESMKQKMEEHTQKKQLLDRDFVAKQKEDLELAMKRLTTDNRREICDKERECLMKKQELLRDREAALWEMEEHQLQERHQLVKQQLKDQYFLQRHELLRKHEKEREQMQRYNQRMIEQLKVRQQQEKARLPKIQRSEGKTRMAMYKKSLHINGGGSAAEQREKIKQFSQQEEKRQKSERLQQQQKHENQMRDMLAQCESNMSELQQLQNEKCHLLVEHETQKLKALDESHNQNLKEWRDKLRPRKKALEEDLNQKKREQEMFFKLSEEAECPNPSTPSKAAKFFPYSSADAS

UniProt Q16512 = molecular target: UniProt Q16512
Sequence of UniProt Q16512 (Q16512 whole entry, looked up): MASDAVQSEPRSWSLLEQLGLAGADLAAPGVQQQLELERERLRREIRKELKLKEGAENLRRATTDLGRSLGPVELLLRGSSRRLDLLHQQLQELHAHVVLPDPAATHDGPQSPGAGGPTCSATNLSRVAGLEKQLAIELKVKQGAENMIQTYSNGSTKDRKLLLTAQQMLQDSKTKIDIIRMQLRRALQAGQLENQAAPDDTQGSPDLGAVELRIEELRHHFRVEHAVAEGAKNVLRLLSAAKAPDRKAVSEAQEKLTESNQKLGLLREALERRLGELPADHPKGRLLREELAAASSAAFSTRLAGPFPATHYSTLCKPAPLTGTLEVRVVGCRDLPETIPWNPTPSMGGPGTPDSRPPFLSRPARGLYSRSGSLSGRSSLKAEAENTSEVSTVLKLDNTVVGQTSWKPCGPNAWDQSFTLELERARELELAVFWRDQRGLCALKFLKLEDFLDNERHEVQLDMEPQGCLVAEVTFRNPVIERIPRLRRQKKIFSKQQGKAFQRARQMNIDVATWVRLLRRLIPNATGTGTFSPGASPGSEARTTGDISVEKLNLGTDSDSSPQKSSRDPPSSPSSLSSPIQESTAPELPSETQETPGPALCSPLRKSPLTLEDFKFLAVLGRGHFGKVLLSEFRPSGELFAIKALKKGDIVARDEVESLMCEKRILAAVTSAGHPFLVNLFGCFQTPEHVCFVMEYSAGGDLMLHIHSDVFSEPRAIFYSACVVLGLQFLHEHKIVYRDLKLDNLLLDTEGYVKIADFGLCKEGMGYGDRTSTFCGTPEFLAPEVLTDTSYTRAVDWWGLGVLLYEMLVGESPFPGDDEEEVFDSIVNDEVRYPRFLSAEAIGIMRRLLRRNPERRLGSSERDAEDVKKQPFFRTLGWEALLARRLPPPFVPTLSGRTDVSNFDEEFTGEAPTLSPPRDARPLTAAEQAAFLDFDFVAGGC

UniProt Q8NI60 = molecular target: UniProt Q8NI60
Sequence of UniProt Q8NI60 (Q8NI60 whole entry, looked up): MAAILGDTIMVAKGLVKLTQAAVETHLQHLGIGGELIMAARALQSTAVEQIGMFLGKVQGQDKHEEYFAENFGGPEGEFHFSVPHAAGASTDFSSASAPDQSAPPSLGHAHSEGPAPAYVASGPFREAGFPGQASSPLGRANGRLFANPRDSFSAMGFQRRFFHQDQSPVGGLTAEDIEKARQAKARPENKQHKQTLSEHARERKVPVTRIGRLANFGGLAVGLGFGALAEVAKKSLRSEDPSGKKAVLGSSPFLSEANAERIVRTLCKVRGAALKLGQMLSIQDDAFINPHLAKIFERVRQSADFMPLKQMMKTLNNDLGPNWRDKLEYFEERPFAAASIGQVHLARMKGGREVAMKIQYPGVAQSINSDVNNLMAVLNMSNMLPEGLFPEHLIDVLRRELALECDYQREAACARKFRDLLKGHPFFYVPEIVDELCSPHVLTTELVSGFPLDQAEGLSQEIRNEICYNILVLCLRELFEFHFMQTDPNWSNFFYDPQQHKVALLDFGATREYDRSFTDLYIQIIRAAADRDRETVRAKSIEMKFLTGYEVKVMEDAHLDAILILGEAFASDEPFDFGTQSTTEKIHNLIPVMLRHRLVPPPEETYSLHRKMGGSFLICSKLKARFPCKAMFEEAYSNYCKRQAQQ

UniProt Q99683 = molecular target: T3, UniProt Q99683
T3 sequence (whole entry): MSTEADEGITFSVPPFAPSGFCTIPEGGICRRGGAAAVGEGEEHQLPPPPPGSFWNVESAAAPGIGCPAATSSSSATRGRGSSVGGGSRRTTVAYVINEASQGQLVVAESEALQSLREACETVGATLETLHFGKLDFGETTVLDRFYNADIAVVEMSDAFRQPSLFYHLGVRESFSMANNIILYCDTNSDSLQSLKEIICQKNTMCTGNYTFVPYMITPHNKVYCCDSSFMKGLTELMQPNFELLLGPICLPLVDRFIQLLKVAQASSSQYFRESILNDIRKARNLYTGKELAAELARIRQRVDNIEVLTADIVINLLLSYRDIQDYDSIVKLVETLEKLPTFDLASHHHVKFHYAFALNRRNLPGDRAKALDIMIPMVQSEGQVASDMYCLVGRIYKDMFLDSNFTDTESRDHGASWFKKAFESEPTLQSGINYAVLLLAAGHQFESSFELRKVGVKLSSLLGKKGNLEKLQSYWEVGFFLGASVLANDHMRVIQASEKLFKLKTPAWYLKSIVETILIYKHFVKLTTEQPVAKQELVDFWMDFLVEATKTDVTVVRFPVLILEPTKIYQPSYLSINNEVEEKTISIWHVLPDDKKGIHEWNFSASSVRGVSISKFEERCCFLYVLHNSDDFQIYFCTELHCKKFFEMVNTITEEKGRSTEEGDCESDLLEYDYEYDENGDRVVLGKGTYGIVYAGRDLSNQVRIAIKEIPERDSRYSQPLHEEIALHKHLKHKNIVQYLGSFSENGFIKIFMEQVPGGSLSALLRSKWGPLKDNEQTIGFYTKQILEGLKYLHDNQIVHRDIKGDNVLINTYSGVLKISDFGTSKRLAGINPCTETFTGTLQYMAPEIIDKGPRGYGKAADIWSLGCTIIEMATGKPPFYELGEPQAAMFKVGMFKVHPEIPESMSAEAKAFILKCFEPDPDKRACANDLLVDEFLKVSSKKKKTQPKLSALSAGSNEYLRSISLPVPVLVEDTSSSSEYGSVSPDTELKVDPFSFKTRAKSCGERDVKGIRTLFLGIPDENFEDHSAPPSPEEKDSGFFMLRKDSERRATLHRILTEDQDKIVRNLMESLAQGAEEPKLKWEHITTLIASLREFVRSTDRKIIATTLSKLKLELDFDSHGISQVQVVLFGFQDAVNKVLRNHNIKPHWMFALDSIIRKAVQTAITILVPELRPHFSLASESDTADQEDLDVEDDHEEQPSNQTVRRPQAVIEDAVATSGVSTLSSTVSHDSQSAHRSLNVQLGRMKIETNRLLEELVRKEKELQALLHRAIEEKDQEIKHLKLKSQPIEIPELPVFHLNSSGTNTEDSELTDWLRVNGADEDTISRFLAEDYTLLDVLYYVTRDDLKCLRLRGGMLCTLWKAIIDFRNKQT

Measured: pIC50

Sequence of AKT2 (P31751 whole entry): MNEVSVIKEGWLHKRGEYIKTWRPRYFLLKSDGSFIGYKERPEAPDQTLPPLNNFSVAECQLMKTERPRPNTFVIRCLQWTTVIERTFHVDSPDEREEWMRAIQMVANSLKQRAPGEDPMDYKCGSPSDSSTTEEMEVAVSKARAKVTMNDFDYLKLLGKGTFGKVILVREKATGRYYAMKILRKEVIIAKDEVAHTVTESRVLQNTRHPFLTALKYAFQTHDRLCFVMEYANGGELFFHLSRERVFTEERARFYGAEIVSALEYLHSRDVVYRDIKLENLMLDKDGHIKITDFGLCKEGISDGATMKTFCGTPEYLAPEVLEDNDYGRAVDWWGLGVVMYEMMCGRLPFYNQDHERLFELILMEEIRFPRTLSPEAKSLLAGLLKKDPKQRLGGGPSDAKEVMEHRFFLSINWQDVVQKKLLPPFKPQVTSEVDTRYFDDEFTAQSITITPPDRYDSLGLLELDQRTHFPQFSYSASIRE

CCc1cnn2c(NCc3ccc[n+]([O-])c3)cc(N3CCCC[C@H]3CCO)nc12 [dinaciclib]
< 4.52: all assays above
